In data set [1] the test system is CQ-resistant P. falciparum FcB1 strain. As to the kind of experiment: In vitro growth inhibition of P. falciparum FcB1 ([3H]-hypoxanthine incorporation). It counts as cell-based, Plasmodium falciparum. The procedure:
(§1) The chloroquine-resistant FcB1/Colombia and Dd2/Indochina strains of Plasmodium falciparum were obtained from the Protist Collection of the National Museum of Natural History, Paris, France (n° MNHN-CEU-2016-224-PfFCB1 and MNHN-CEU-2016-222-PfDD2). The parasites were maintained in vitro on human erythrocytes in RPMI 1640 medium supplemented by 8% (v/v) heat-inactivated human serum, at 37 °C, under an atmosphere of 5% CO2. The human red blood cells and serum were provided by the Établissement Français du Sang under the C-CPSL-UNT approval no. 13/EFS/126. The in vitro drug susceptibility assays were measured by [^3H]-hypoxanthine incorporation, as previously described. The drug stock solutions were prepared in DMSO. Briefly, the assays were performed in 96-well plates. The compounds were diluted in the culture medium (100 μL per well). The parasite cultures (100 μL, 2% parasitaemia, and 1% final hematocrit) were then added to each well and incubated for 24 h at 37 °C prior to the addition of 0.5 μCi of [^3H]- hypoxanthine (GE Healthcare, Paris, France, 1 to 5 Ci·mmol/mL) per well. After a further incubation of 24 h, the plates were frozen and thawed. The cell lysates were then collected onto fiberglass filters and counted in a liquid scintillation spectrometer. The growth inhibition for each drug concentration was determined through a comparison of the radioactivity incorporated in the treated culture with that in the control culture maintained on the same plate. The drugs were first evaluated for a range of fixed concentrations of 50, 5, 0.5, 0.05, and 0.005 μg/mL. […] The IC50 value was obtained from the drug concentration–response curve, and the results were expressed in μM or nM as the mean values ± standard deviations determined from several independent experiments. Artesunate (46) was used as an antimalarial drug control.

Data set [2] has as its system CQ-resistant Dd2 strain of P. falciparum. As to the kind of experiment: In vitro growth inhibition of P. falciparum Dd2 ([3H]-hypoxanthine incorporation). It counts as cell-based, Plasmodium falciparum. The following applies: for IC50: Plasmodium falciparum, CQ-resistant Dd2, mean +/− SD of at least three independent experiments. The procedure: as §1
The test system of data set [3] is human primary fibroblasts AB943. As to the kind of experiment: Cytotoxicity upon human primary fibroblasts AB943 (resazurin). The note with it: Fibroblast, 72 h, mean +/− SD of at least three independent experiments. Format: cell-based. The procedure: A cellular cytotoxicity evaluation was performed upon human primary fibroblasts AB943, as previously described. The assays were realized in 96-well plates in DMEM + Glutamax without phenol red medium containing 25 mM HEPES, a pH of 7.3, and 10% of fetal calf serum under a 5% CO2 atmosphere, at 37 °C. After trypsin treatment, the AB943 cells were seeded at 2000 cells per well in 100 μL. After 24 h of incubation, drugs diluted in the culture medium were added (100 μL per well). The drug stock solutions were prepared in dimethyl sulfoxide (DMSO). The final DMSO concentration in the cultures remained below 1%. Control cultures were constituted of cultures treated with DMSO instead of the drug. The cytotoxicity assay was based on the conversion of a redo-sensitive dye (resazurin) to a fluorescent product via viable cells. After 72 h of incubation, the resazurin solution was added in each well at a final concentration of 45 μM. The fluorescence was measured at 530 nm excitation and 590 nm emission wavelengths after 4 h of incubation. The percentage of the inhibition of cell growth was calculated by comparing the fluorescence of cells maintained in the presence of the drug to that in the absence of the drug. The concentration causing 50% growth inhibition (IC50) was obtained from the drug concentration–response curve, and the results were expressed as the mean values ± standard deviations determined from several experiments.
Background: The colour change of resazurin is a common sign of viable cells or microbes.

[4] abbreviates: Plasmodium falciparum, FCB1, CQ-resistant FcB1, IC50 determined from the compound tested at 50, 5, 0.5 µg/mL and 50 and 5 ng/mL in triplicate (footnote b).
[5] abbreviates: Plasmodium falciparum, FCB1, CQ-resistant FcB1, mean +/− standard deviation of independent experiments (at least four in Tables 1-2, at least three in Tables 3-4).
Setting [6] is: Plasmodium falciparum, FCB1, Table 5, CPX or NRX fragments alone.
[7] abbreviates: CQ-resistant FcB1, IC50 determined from the compound tested at 50, 5, 0.5 µg/mL and 50 and 5 ng/mL in triplicate (footnote b).

The record followed here is article PMC10886162, “Synthesis of Novel Artemisinin, Ciprofloxacin, and Norfloxacin Hybrids with Potent Antiplasmodial Activity” (Antibiotics, 2024).

As usually defined, the IC50 is the concentration that inhibits the measured activity by half. What is called melting point is the temperature of the solid-liquid transition.

`CCOC(=O)c1cn(C2CC2)c2cc(N3CCN(C(=O)C[C@H]4O[C@@H]5O[C@@]6(C)CCC7[C@H](C)CCC([C@H]4C)[C@]75OO6)CC3)c(F)cc2c1=O` (stereo partly drawn) [Compound 14, Ethyl 1-cyclopropyl-6-fluoro-4-oxo-7-(4-(2-((3R,6R,9R,10R,12R,12aR)-3,6,9-trimethyldecahydro-12H-3,12-epoxy[1,2]dioxepino[4,3-i]isochromen-10-yl)acetyl)piperazin-1-yl)-1,4-dihydroquinoline-3-carboxylate] displayed a melting point of 142 to 143 °C. Further, the IC50 in data set [1] (setting [4]) worked out at 121 nM. On to `CCCCOC(=O)c1cn(C2CC2)c2cc(N3CCN(C(=O)CC[C@H]4O[C@@H]5O[C@@]6(C)CCC7[C@H](C)CCC([C@H]4C)[C@]75OO6)CC3)c(F)cc2c1=O` (stereo partly drawn) [Compound 17, Butyl 1-cyclopropyl-6-fluoro-4-oxo-7-(4-(3-((3R,6R,9R,10R,12R,12aR)-3,6,9-trimethyldecahydro-12H-3,12-epoxy[1,2]dioxepino[4,3-i]isochromen-10-yl)propanoyl)piperazin-1-yl)-1,4-dihydroquinoline-3-carboxylate], for which the IC50 in data set [1] (setting [4]) was 362 nM. The same measure, in the same setting: with `CCn1cc(C(=O)O)c(=O)c2cc(F)c(N3CCNCC3)cc21` [NRX, norfloxacin] the figure was 81400 nM; with `CCOC(=O)c1cn(CC)c2cc(N3CCN(C(c4ccccc4)(c4ccccc4)c4ccccc4)CC3)c(F)cc2c1=O` [Compound 34, Ethyl 1-ethyl-6-fluoro-4-oxo-7-(4-tritylpiperazin-1-yl)-1,4-dihydroquinoline-3-carboxylate], 84800 nM.

For the compound `CCOC(=O)c1cn(C2CC2)c2cc(N3CCN(C(=O)CC[C@H]4O[C@@H]5O[C@@]6(C)CCC7[C@H](C)CCC([C@H]4C)[C@]75OO6)CC3)c(F)cc2c1=O` (stereo partly drawn) [Compound 15, Ethyl 1-cyclopropyl-6-fluoro-4-oxo-7-(4-(3-((3R,6R,9R,10R,12R,12aR)-3,6,9-trimethyldecahydro-12H-3,12-epoxy[1,2]dioxepino[4,3-i]isochromen-10-yl)propanoyl)piperazin-1-yl)-1,4-dihydroquinoline-3-carboxylate], the melting point is 110.4 to 111.5 °C. In data set [1] (setting [4]), the IC50 amounted to 1470 nM.

On to `CCCCOC(=O)c1cn(CC)c2cc(N3CCN(C(c4ccccc4)(c4ccccc4)c4ccccc4)CC3)c(F)cc2c1=O` [Compound 35, Butyl 1-ethyl-6-fluoro-4-oxo-7-(4-tritylpiperazin-1-yl)-1,4-dihydroquinoline-3-carboxylate], for which, in data set [1] (setting [4]), the IC50 was 26200 nM. Consider `CCn1cc(C(=O)N2CCN(c3ccnc4cc(Cl)ccc34)CC2)c(=O)c2cc(F)c(N3CCN(C(c4ccccc4)(c4ccccc4)c4ccccc4)CC3)cc21` [Compound 37, 3-(4-(7-chloroquinolin-4-yl)piperazine-1-carbonyl)-1-ethyl-6-fluoro-7-(4-tritylpiperazin-1-yl)quinolin-4(1H)-one], for which the IC50 in data set [1] (setting [5]) turned out to be 184 nM; in data set [2], 307 nM. With `CCn1cc(C(=O)N2CCN(c3ccnc4cc(Cl)ccc34)CC2)c(=O)c2cc(F)c(N3CCNCC3)cc21` [Compound 43], the IC50 in data set [1] (setting [5]) is 476 nM; in data set [2] it was 483 nM; in data set [3], 12700 nM. Moreover, the “Selectivity Index (IC50 AB943/IC50 FcB1)” value in data set [1] (ratio of cytotoxicity IC50 to antiplasmodial IC50 (FcB1)) is 27. In data set [2] (ratio of cytotoxicity IC50 to antiplasmodial IC50 (Dd2)), the “Selectivity Index (IC50 AB943/IC50 Dd2)” value was found to be 26. Take `CCOC(=O)c1cn(C2CC2)c2cc(N3CCN(C(c4ccccc4)(c4ccccc4)c4ccccc4)CC3)c(F)cc2c1=O` [Compound 32, Ethyl 1-cyclopropyl-6-fluoro-4-oxo-7-(4-tritylpiperazin-1-yl)-1,4-dihydroquinoline-3-carboxylate]: the IC50 in data set [1] (setting [4]) amounted to 41900 nM. Same read-out and setting: for `O=C(c1cn(C2CC2)c2cc(N3CCN(C(c4ccccc4)(c4ccccc4)c4ccccc4)CC3)c(F)cc2c1=O)N1CCN(c2ccnc3cc(Cl)ccc23)CC1` [Compound 36, 3-(4-(7-chloroquinolin-4-yl)piperazine-1-carbonyl)-1-cyclopropyl-6-fluoro-7-(4-tritylpiperazin-1-yl)quinolin-4(1H)-one] the value was 26500 nM.

Regarding `CCOC(=O)c1cn(CC)c2cc(N3CCNCC3)c(F)cc2c1=O` [Compound 40], the IC50 in data set [1] (setting [4]) is 19700 nM; in data set [1] (setting [6]) it was 45700 nM.

In turn, `C[C@@H]1CCC2[C@@H](C)[C@@H](CCC(=O)N3CCN(c4cc5c(cc4F)c(=O)c(C(=O)O)cn5C4CC4)CC3)O[C@@H]3O[C@@]4(C)CCC1[C@@]23OO4` (stereo partly drawn) [Compound 13, 1-cyclopropyl-6-fluoro-4-oxo-7-(4-(3-((3R,6R,9R,10R,12R,12aR)-3,6,9-trimethyldecahydro-12H-3,12-epoxy[1,2]dioxepino[4,3-i]isochromen-10-yl)propanoyl)piperazin-1-yl)-1,4-dihydroquinoline-3-carboxylic acid] showed a melting point of 136 to 137 °C. In data set [1] (setting [4]), the IC50 amounted to 2910 nM. As to `CCCCOC(=O)c1cn(C2CC2)c2cc(N3CCNCC3)c(F)cc2c1=O` [Compound 39], the IC50 in data set [1] (setting [4]) worked out at 13600 nM; in data set [1] (setting [6]) it was 7000 nM. Consider `CC1CCC2C(C)C(CCC(=O)O)OC3OC4(C)CCC1C32OO4` (stereo not shown) [Compound 45, reference compound], for which the IC50 in data set [1] (setting [7]) and in data set [1] (setting [4]) was 264 nM in each case. Turning to `CCCCOC(=O)c1cn(CC)c2cc(N3CCNCC3)c(F)cc2c1=O` [Compound 41], the IC50 in data set [1] (setting [4]) was 13900 nM; in data set [1] (setting [6]), 8600 nM. Take `O=C(c1cn(C2CC2)c2cc(N3CCNCC3)c(F)cc2c1=O)N1CCN(c2ccnc3cc(Cl)ccc23)CC1` [Compound 42]: the IC50 in data set [1] (setting [7]) and in data set [1] (setting [4]) was 360 nM each time.

For the compound `CC1CCC2C(C)C(CC(=O)O)OC3OC4(C)CCC1C32OO4` (stereo not shown) [Compound 44, reference compound], the IC50 in data set [1] (setting [7]) and in data set [1] (setting [4]) was 401 nM throughout. Regarding `CCOC(=O)c1cn(C2CC2)c2cc(N3CCNCC3)c(F)cc2c1=O` [Compound 38], in data set [1] (setting [4]), the IC50 worked out at 53600 nM. Same read-out and setting: with `O=C(O)c1cn(C2CC2)c2cc(N3CCNCC3)c(F)cc2c1=O` [CPX, ciprofloxacin] the figure was 54100 nM; with `CCCCOC(=O)c1cn(C2CC2)c2cc(N3CCN(C(c4ccccc4)(c4ccccc4)c4ccccc4)CC3)c(F)cc2c1=O` [Compound 33, Butyl 1-cyclopropyl-6-fluoro-4-oxo-7-(4-tritylpiperazin-1-yl)-1,4-dihydroquinoline-3-carboxylate], 3900 nM. `CCn1cc(C(=O)N2CCN(c3ccnc4cc(Cl)ccc34)CC2)c(=O)c2cc(F)c(N3CCN(C(=O)C[C@H]4O[C@@H]5O[C@@]6(C)CCC7[C@H](C)CCC([C@H]4C)[C@]75OO6)CC3)cc21` (stereo partly drawn) [Compound 27, 3-(4-(7-chloroquinolin-4-yl)piperazine-1-carbonyl)-1-ethyl-6-fluoro-7-(4-(2-((3R,6R,9R,10R,12R,12aR)-3,6,9-trimethyldecahydro-12H-3,12-epoxy[1,2]dioxepino[4,3-i]isochromen-10-yl)acetyl)piperazin-1-yl)quinolin-4(1H)-one] returned a melting point of 173.6 to 174.5 °C. Besides, in data set [1] (setting [5]), the IC50 turned out to be 6.6 nM. Further, in data set [2], the IC50 came to 28.5 nM.
